# Test system: Detoxification protein genes
# Test: DNA chip mRNA expression in yeast, detoxification protein genes (Table 8)
# Format: cell-based, Saccharomyces cerevisiae S288C
# Outline: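 In this screen, yeast in logarithmic growth are challenged for two hours with a toxic substance at a non-lethal inhibitory concentration. Their mRNA, converted to Cy3- or Cy5-labeled cDNA, hybridizes at 65° C. to a chip spanning every yeast gene, and expression is expressed as a ratio to untreated cells.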
structure (smiles),measurement,setting,value
"O=[N+]([O-])c1cc[n+]([O-])c2ccccc12 [(5), 4-nitroquinolin-N-oxide]",The level of expressed mRNA in the presence of chemical substance/The level of expressed mRNA in the absence of chemical substance,yeast gene YBL064C,0.8
same,The level of expressed mRNA in the presence of chemical substance/The level of expressed mRNA in the absence of chemical substance,yeast gene YBR008C,0.9
same,The level of expressed mRNA in the presence of chemical substance/The level of expressed mRNA in the absence of chemical substance,yeast gene YBR145W,1.1
same,The level of expressed mRNA in the presence of chemical substance/The level of expressed mRNA in the absence of chemical substance,yeast gene YBR244W,1.7
same,The level of expressed mRNA in the presence of chemical substance/The level of expressed mRNA in the absence of chemical substance,yeast gene YBR293W,0.8
same,The level of expressed mRNA in the presence of chemical substance/The level of expressed mRNA in the absence of chemical substance,yeast gene YCL035C,1.5
same,The level of expressed mRNA in the presence of chemical substance/The level of expressed mRNA in the absence of chemical substance,yeast gene YCL069W,0.9
same,The level of expressed mRNA in the presence of chemical substance/The level of expressed mRNA in the absence of chemical substance,yeast gene YCR083W,1.6
same,The level of expressed mRNA in the presence of chemical substance/The level of expressed mRNA in the absence of chemical substance,yeast gene YDL100C,1.0
same,The level of expressed mRNA in the presence of chemical substance/The level of expressed mRNA in the absence of chemical substance,yeast gene YDL168W,1.2
same,The level of expressed mRNA in the presence of chemical substance/The level of expressed mRNA in the absence of chemical substance,yeast gene YDR256C,1.2
same,The level of expressed mRNA in the presence of chemical substance/The level of expressed mRNA in the absence of chemical substance,yeast gene YDR453C,0.7
same,The level of expressed mRNA in the presence of chemical substance/The level of expressed mRNA in the absence of chemical substance,yeast gene YDR513W,0.9
same,The level of expressed mRNA in the presence of chemical substance/The level of expressed mRNA in the absence of chemical substance,yeast gene YDR538W,1.0
same,The level of expressed mRNA in the presence of chemical substance/The level of expressed mRNA in the absence of chemical substance,yeast gene YEL027W,1.0
same,The level of expressed mRNA in the presence of chemical substance/The level of expressed mRNA in the absence of chemical substance,yeast gene YEL065W,1.4
same,The level of expressed mRNA in the presence of chemical substance/The level of expressed mRNA in the absence of chemical substance,yeast gene YER185W,1.6
same,The level of expressed mRNA in the presence of chemical substance/The level of expressed mRNA in the absence of chemical substance,yeast gene YFL050C,1.0
same,The level of expressed mRNA in the presence of chemical substance/The level of expressed mRNA in the absence of chemical substance,yeast gene YGL013C,1.1
same,The level of expressed mRNA in the presence of chemical substance/The level of expressed mRNA in the absence of chemical substance,yeast gene YGL254W,1.1
same,The level of expressed mRNA in the presence of chemical substance/The level of expressed mRNA in the absence of chemical substance,yeast gene YGR088W,1.0
same,The level of expressed mRNA in the presence of chemical substance/The level of expressed mRNA in the absence of chemical substance,yeast gene YGR138C,0.8
same,The level of expressed mRNA in the presence of chemical substance/The level of expressed mRNA in the absence of chemical substance,yeast gene YGR197C,0.7
same,The level of expressed mRNA in the presence of chemical substance/The level of expressed mRNA in the absence of chemical substance,yeast gene YGR209C,1.9
same,The level of expressed mRNA in the presence of chemical substance/The level of expressed mRNA in the absence of chemical substance,yeast gene YGR224W,1.4
same,The level of expressed mRNA in the presence of chemical substance/The level of expressed mRNA in the absence of chemical substance,yeast gene YHL040C,1.1
same,The level of expressed mRNA in the presence of chemical substance/The level of expressed mRNA in the absence of chemical substance,yeast gene YHL047C,1.2
same,The level of expressed mRNA in the presence of chemical substance/The level of expressed mRNA in the absence of chemical substance,yeast gene YHR008C,0.6
same,The level of expressed mRNA in the presence of chemical substance/The level of expressed mRNA in the absence of chemical substance,yeast gene YHR048W,1.0
same,The level of expressed mRNA in the presence of chemical substance/The level of expressed mRNA in the absence of chemical substance,yeast gene YHR053C,2.9
same,The level of expressed mRNA in the presence of chemical substance/The level of expressed mRNA in the absence of chemical substance,yeast gene YHR055C,2.7
same,The level of expressed mRNA in the presence of chemical substance/The level of expressed mRNA in the absence of chemical substance,yeast gene YIR002C,1.2
same,The level of expressed mRNA in the presence of chemical substance/The level of expressed mRNA in the absence of chemical substance,yeast gene YIR038C,0.7
same,The level of expressed mRNA in the presence of chemical substance/The level of expressed mRNA in the absence of chemical substance,yeast gene YJL101C,1.4
same,The level of expressed mRNA in the presence of chemical substance/The level of expressed mRNA in the absence of chemical substance,yeast gene YJR104C,1.5
same,The level of expressed mRNA in the presence of chemical substance/The level of expressed mRNA in the absence of chemical substance,yeast gene YKL026C,1.0
same,The level of expressed mRNA in the presence of chemical substance/The level of expressed mRNA in the absence of chemical substance,yeast gene YKL064W,1.2
same,The level of expressed mRNA in the presence of chemical substance/The level of expressed mRNA in the absence of chemical substance,yeast gene YKR066C,1.0
same,The level of expressed mRNA in the presence of chemical substance/The level of expressed mRNA in the absence of chemical substance,yeast gene YKR105C,1.0
same,The level of expressed mRNA in the presence of chemical substance/The level of expressed mRNA in the absence of chemical substance,yeast gene YKR106W,1.2
same,The level of expressed mRNA in the presence of chemical substance/The level of expressed mRNA in the absence of chemical substance,yeast gene YLL028W,0.9
same,The level of expressed mRNA in the presence of chemical substance/The level of expressed mRNA in the absence of chemical substance,yeast gene YLL057C,1.1
same,The level of expressed mRNA in the presence of chemical substance/The level of expressed mRNA in the absence of chemical substance,yeast gene YLL060C,0.9
same,The level of expressed mRNA in the presence of chemical substance/The level of expressed mRNA in the absence of chemical substance,yeast gene YLR043C,2.0
same,The level of expressed mRNA in the presence of chemical substance/The level of expressed mRNA in the absence of chemical substance,yeast gene YLR046C,1.0
same,The level of expressed mRNA in the presence of chemical substance/The level of expressed mRNA in the absence of chemical substance,yeast gene YML028W,1.6
same,The level of expressed mRNA in the presence of chemical substance/The level of expressed mRNA in the absence of chemical substance,yeast gene YML116W,1.2
same,The level of expressed mRNA in the presence of chemical substance/The level of expressed mRNA in the absence of chemical substance,yeast gene YMR015C,1.7
same,The level of expressed mRNA in the presence of chemical substance/The level of expressed mRNA in the absence of chemical substance,yeast gene YMR038C,1.5
same,The level of expressed mRNA in the presence of chemical substance/The level of expressed mRNA in the absence of chemical substance,yeast gene YNL239W,1.2
same,The level of expressed mRNA in the presence of chemical substance/The level of expressed mRNA in the absence of chemical substance,yeast gene YNL241C,0.8
same,The level of expressed mRNA in the presence of chemical substance/The level of expressed mRNA in the absence of chemical substance,yeast gene YNL259C,1.1
same,The level of expressed mRNA in the presence of chemical substance/The level of expressed mRNA in the absence of chemical substance,yeast gene YOL158C,1.2
same,The level of expressed mRNA in the presence of chemical substance/The level of expressed mRNA in the absence of chemical substance,yeast gene YOR031W,1.4
same,The level of expressed mRNA in the presence of chemical substance/The level of expressed mRNA in the absence of chemical substance,yeast gene YOR153W,1.0
same,The level of expressed mRNA in the presence of chemical substance/The level of expressed mRNA in the absence of chemical substance,yeast gene YOR247W,0.6
same,The level of expressed mRNA in the presence of chemical substance/The level of expressed mRNA in the absence of chemical substance,yeast gene YOR251C,0.8
same,The level of expressed mRNA in the presence of chemical substance/The level of expressed mRNA in the absence of chemical substance,yeast gene YOR273C,1.1
same,The level of expressed mRNA in the presence of chemical substance/The level of expressed mRNA in the absence of chemical substance,yeast gene YPL163C,0.6
same,The level of expressed mRNA in the presence of chemical substance/The level of expressed mRNA in the absence of chemical substance,yeast gene YPR200C,1.6

# Reference: US8192962B2, “Processes for detecting toxic substances” (Daikin Industries, Ltd., priority 2001, dated 2012)
